According to ChEMBL document CHEMBL3046000, “Design and synthesis of 1-(benzothiazol-5-yl)-1H-1,2,4-triazol-5-ones as protoporphyrinogen oxidase inhibitors” (Bioorg Med Chem, 2013):

Columns and labels:
[1] = tested on: Setaria faberi; assay: Post-emergence herbicidal activity against Setaria faberi (Giant Foxtail) seedlings assessed as plant growth inhibition at 150 g ai/ha measured 15 days after compound treatment under greenhouse conditions; format: functional; settings: 360 h, read-out: GI
[2] = tested on: Echinochloa crus-galli; assay: Post emergence herbicidal activity against Echinochloa crus-galli (barnyard grass) seedlings assessed as plant growth inhibition at 150 g ai/ha measured 15 days after compound treatment under greenhouse conditions; format: functional; settings: 360 h, read-out: GI
[3] = tested on: Digitaria sanguinalis; assay: Post-emergence herbicidal activity against Digitaria sanguinalis (hairy crabgrass) seedlings assessed as plant growth inhibition at 150 g ai/ha measured 15 days after compound treatment under greenhouse conditions; format: functional; settings: 360 h, read-out: GI
[4] = tested on: Amaranthus retroflexus; assay: Post emergence herbicidal activity against Amaranthus retroflexus seedlings assessed as plant growth inhibition at 150 g ai/ha measured 15 days after compound treatment under greenhouse conditions; format: functional; settings: 360 h, read-out: GI
[5] = tested on: Chenopodium album; assay: Post-emergence herbicidal activity against Chenopodium album seedlings assessed as plant growth inhibition at 150 g ai/ha measured 15 days after compound treatment under greenhouse conditions; format: functional; settings: 360 h, read-out: GI
[6] = target: T1, Protoporphyrinogen oxidase, chloroplastic (Nicotiana tabacum, UniProt O24163); assay: Inhibition of Nicotiana tabacum (tobacco) recombinant PPO assessed as protoporphyrin IX formation at room temperature by fluorimetric assay
T1 sequence (O24163 whole entry): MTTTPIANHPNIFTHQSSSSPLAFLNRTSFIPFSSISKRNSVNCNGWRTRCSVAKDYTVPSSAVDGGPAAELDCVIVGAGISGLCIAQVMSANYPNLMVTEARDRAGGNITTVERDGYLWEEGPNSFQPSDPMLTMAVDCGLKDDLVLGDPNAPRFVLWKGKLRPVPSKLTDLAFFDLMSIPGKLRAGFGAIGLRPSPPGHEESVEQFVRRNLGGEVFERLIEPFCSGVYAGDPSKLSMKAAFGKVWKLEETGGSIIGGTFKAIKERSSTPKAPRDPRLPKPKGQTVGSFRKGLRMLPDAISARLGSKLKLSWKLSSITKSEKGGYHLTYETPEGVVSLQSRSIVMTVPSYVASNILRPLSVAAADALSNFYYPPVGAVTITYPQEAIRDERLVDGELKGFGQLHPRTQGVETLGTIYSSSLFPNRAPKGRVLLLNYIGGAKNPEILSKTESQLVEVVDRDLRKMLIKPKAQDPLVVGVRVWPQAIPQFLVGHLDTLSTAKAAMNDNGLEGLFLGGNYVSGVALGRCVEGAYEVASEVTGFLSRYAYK

[7] = tested on: Brassica juncea; assay: Post-emergence herbicidal activity against Brassica juncea seedlings assessed as plant growth inhibition at 150 g ai/ha measured 15 days after compound treatment under greenhouse conditions; format: functional; settings: 360 h, read-out: GI
[8] = tested on: Amaranthus retroflexus; assay: Post emergence herbicidal activity against Amaranthus retroflexus seedlings assessed as plant growth inhibition at 37.5 g ai/ha measured 15 days after compound treatment under greenhouse conditions; format: functional; settings: 360 h, read-out: GI
[9] = tested on: Echinochloa crus-galli; assay: Post emergence herbicidal activity against Echinochloa crus-galli (barnyard grass) seedlings assessed as plant growth inhibition at 75 g ai/ha measured 15 days after compound treatment under greenhouse conditions; format: functional; settings: 360 h, read-out: GI
[10] = tested on: Amaranthus retroflexus; assay: Post emergence herbicidal activity against Amaranthus retroflexus seedlings assessed as plant growth inhibition at 75 g ai/ha measured 15 days after compound treatment under greenhouse conditions; format: functional; settings: 360 h, read-out: GI
[11] = tested on: Chenopodium album; assay: Post-emergence herbicidal activity against Chenopodium album seedlings assessed as plant growth inhibition at 37.5 g ai/ha measured 15 days after compound treatment under greenhouse conditions; format: functional; settings: 360 h, read-out: GI
[12] = tested on: Brassica juncea; assay: Post-emergence herbicidal activity against Brassica juncea seedlings assessed as plant growth inhibition at 37.5 g ai/ha measured 15 days after compound treatment under greenhouse conditions; format: functional; settings: 360 h, read-out: GI
[13] = tested on: Digitaria sanguinalis; assay: Post-emergence herbicidal activity against Digitaria sanguinalis (hairy crabgrass) seedlings assessed as plant growth inhibition at 75 g ai/ha measured 15 days after compound treatment under greenhouse conditions; format: functional; settings: 360 h, read-out: GI
[14] = tested on: Setaria faberi; assay: Post-emergence herbicidal activity against Setaria faberi (Giant Foxtail) seedlings assessed as plant growth inhibition at 37.5 g ai/ha measured 15 days after compound treatment under greenhouse conditions; format: functional; settings: 360 h, read-out: GI
[15] = tested on: Chenopodium album; assay: Post-emergence herbicidal activity against Chenopodium album seedlings assessed as plant growth inhibition at 75 g ai/ha measured 15 days after compound treatment under greenhouse conditions; format: functional; settings: 360 h, read-out: GI
[16] = tested on: Brassica juncea; assay: Post-emergence herbicidal activity against Brassica juncea seedlings assessed as plant growth inhibition at 75 g ai/ha measured 15 days after compound treatment under greenhouse conditions; format: functional; settings: 360 h, read-out: GI
[17] = tested on: Setaria faberi; assay: Post-emergence herbicidal activity against Setaria faberi (Giant Foxtail) seedlings assessed as plant growth inhibition at 75 g ai/ha measured 15 days after compound treatment under greenhouse conditions; format: functional; settings: 360 h, read-out: GI
[18] = tested on: Digitaria sanguinalis; assay: Post-emergence herbicidal activity against Digitaria sanguinalis (hairy crabgrass) seedlings assessed as plant growth inhibition at 37.5 g ai/ha measured 15 days after compound treatment under greenhouse conditions; format: functional; settings: 360 h, read-out: GI
[19] = tested on: Echinochloa crus-galli; assay: Post emergence herbicidal activity against Echinochloa crus-galli (barnyard grass) seedlings assessed as plant growth inhibition at 37.5 g ai/ha measured 15 days after compound treatment under greenhouse conditions; format: functional; settings: 360 h, read-out: GI

SMILES | inhibition of growth at 150 g/ha [1] | inhibition of growth at 150 g/ha [2] | inhibition of growth at 150 g/ha [3] | inhibition of growth at 150 g/ha [4] | inhibition of growth at 150 g/ha [5] | Ki [6] | inhibition of growth at 150 g/ha [7] | inhibition of growth at 37.5 g/ha [8] | inhibition of growth at 75 g/ha [9] | inhibition of growth at 75 g/ha [10] | inhibition of growth at 37.5 g/ha [11] | inhibition of growth at 37.5 g/ha [12] | inhibition of growth at 75 g/ha [13] | inhibition of growth at 37.5 g/ha [14] | inhibition of growth at 75 g/ha [15] | inhibition of growth at 75 g/ha [16] | inhibition of growth at 75 g/ha [17] | inhibition of growth at 37.5 g/ha [18] | inhibition of growth at 37.5 g/ha [19]
C=CCSc1nc2cc(-n3nc(C)n(C(F)F)c3=O)c(Br)cc2s1 | 60% | < 50% | < 50% | 60% | 50% | 12.8 µM | 50% |  |  |  |  |  |  |  |  |  |  |  | 
CCOC(=O)Sc1nc2cc(-n3nc(C)n(C(F)F)c3=O)c(F)cc2s1 | < 50% | 50% | 50% | ≥ 90% | ≥ 90% | 0.58 µM | ≥ 90% | < 50% | < 50% | < 50% | < 50% | < 50% | < 50% | < 50% | 60% | < 50% | < 50% | < 50% | < 50%
CCOC(=O)Sc1nc2cc(-n3nc(C)n(C(F)F)c3=O)c(Cl)cc2s1 | < 50% | < 50% | < 50% | < 50% | < 50% |  | < 50% |  |  |  |  |  |  |  |  |  |  |  | 
CCCCSc1nc2cc(-n3nc(C)n(C(F)F)c3=O)c(Cl)cc2s1 | < 50% | < 50% | < 50% | < 50% | < 50% | 2.97 µM | 50% |  |  |  |  |  |  |  |  |  |  |  | 
CCCSc1nc2cc(-n3nc(C)n(C(F)F)c3=O)c(Cl)cc2s1 | < 50% | < 50% | < 50% | 60% | 50% | 2.01 µM | ≥ 90% |  |  |  |  |  |  |  |  |  |  |  | 
CSc1nc2cc(-n3nc(C)n(C(F)F)c3=O)c(Cl)cc2s1 | < 50% | < 50% | 50% | 50% | 50% | 13.9 µM | 60% |  |  |  |  |  |  |  |  |  |  |  | 
COC(=O)CSc1nc2cc(-n3nc(C)n(C(F)F)c3=O)c(F)cc2s1 | ≥ 90% | ≥ 90% | ≥ 90% | ≥ 90% | ≥ 90% | 1.08 µM | ≥ 90% | ≥ 90% | 60% | ≥ 90% | < 50% | 60% | < 50% | 60% | ≥ 90% | ≥ 90% | 60% | < 50% | 60%
COC(=O)Sc1nc2cc(-n3nc(C)n(C(F)F)c3=O)c(F)cc2s1 | < 50% | 60% | 60% | ≥ 90% | ≥ 90% | 0.29 µM | ≥ 90% | < 50% | 50% | 50% | 50% | < 50% | 60% | < 50% | ≥ 90% | 50% | < 50% | 60% | 50%
